SMILES strings stand for the structures.

As a reminder, the melting point is the temperature of the solid-liquid transition. In turn, `O=C(O)CCNS(=O)(=O)c1cccc(Cl)c1` returned a melting point of 143 to 145 °C.
`Nc1ncncc1-c1ccc(Cl)cc1` gave a melting point of 195 to 197 °C.
As to `C=CCC(NC(C)=O)C(=O)O` (stereo unspecified), the melting point was 114 to 116 °C.
With `Cn1cc(C=O)c(-c2cc3ccccc3o2)n1`, the melting point lay within 151 to 153 °C.
`CC(NS(=O)(=O)c1cnn(C)c1)C(=O)O` (stereo unspecified) returned a melting point of 169 to 171 °C.
The result for `O=C(O)Cc1csc(Cc2ccc(F)cc2)n1` reads 137 to 139 °C; that for `Cc1cc(C)c(C(=O)CCl)c(C)c1C`, 61 to 63 °C; that for `N#CCSc1ccc(C(=O)O)cc1`, 269 to 271 °C.
The result for `Cc1nn(C)c(Cl)c1/C=C/C(=O)O` reads 156 to 158 °C; that for `CC1CCN(Cc2csc(N)n2)CC1`, 145 to 147 °C.
The result for `COc1ccc(/C=C/C(=O)O)c(OC)c1` reads 192 to 194 °C; that for `O=Cc1csc(-c2ccccn2)n1`, 130 to 132 °C.
As for `N#Cc1cnccc1N`, the melting point lay within 170 to 172 °C.
The result for `COC(=O)c1cccc(Oc2ccnc(Cl)n2)c1` reads 117 to 119 °C; that for `Nc1ccnc(N2CCCC2)n1`, 218 to 220 °C.
The compound `CC1(c2ccc(N)cc2)NC(=O)NC1=O` (stereo unspecified) displayed a melting point of 187 to 189 °C.
The result for `NNC(=O)CSc1n[nH]c(=O)[nH]c1=O` reads 225 to 227 °C; that for `O=C(O)Cn1c(-c2ccccc2Cl)nc2ccccc21`, 276 to 278 °C; that for `O=C(O)CNC(=O)c1ccc(S(=O)(=O)Cl)cc1`, 130 to 132 °C.
In turn, `O=C(Nc1ccccc1F)Nc1cccc2c1CCCN2` had a melting point of 204 to 206 °C.
As for `CC(=O)c1ccc(OC(C)C(=O)O)cc1` (stereo unspecified), the melting point lay in the range of 158 to 161 °C.
`CCOC(=O)c1sc2cccc(F)c2c1CBr`: the melting point fell in the range of 133 to 135 °C.
As for `Cc1cc(C)nc(N)c1`, the figure is 63 to 64 °C; as for `O=C1CN(Cc2ccc(Br)cc2F)CCN1`, 142 to 144 °C.
As for `O=C(O)CSc1nnc(-c2ccc(F)cc2)n1CC1CCCO1` (stereo unspecified), the figure is 131 to 133 °C; as for `CC(=O)N(c1ccc(Cl)cc1)c1nc(CCl)cs1`, 145 to 147 °C; as for `CCNS(=O)(=O)c1cccc(C(=O)O)c1`, 199 to 201 °C.
As for `Cc1cc([N+](=O)[O-])cc(C)c1S(=O)(=O)Cl`, the figure is 84 to 86 °C; as for `CON(C)S(=O)(=O)c1cc([N+](=O)[O-])ccc1Cl`, 123 to 125 °C.
As for `CNC(=O)CS(=O)(=O)c1ccc(C(=O)O)cc1`, the melting point is 249 to 251 °C.
As for `Cc1cc(N2CCN(C)CC2)ccc1N`, the figure is 100 to 102 °C; as for `CC(O)C1CCCCN1C(=O)OC(C)(C)C` (stereo unspecified), 46 to 48 °C; as for `N#CCC(=O)c1ccc(Cl)cc1F`, 79 to 81 °C.
In turn, `O=c1[nH]cnc2nc(N3CCOCC3)sc12` registered a melting point of 397 to 399 °C.
In the case of `Nc1cc(S(=O)(=O)N2CCCCC2)ccc1Cl`, the melting point was in the range of 129 to 131 °C.
On to `O=C(O)c1csc(-c2cnn(-c3ccccc3)n2)n1`, for which the melting point lay in the range of 239 to 241 °C.
The result for `Nc1ccc(-c2cn3cccnc3n2)cc1` reads 251 to 253 °C; that for `O=c1oc2ccccc2c(O)c1Cc1c(O)c2ccccc2oc1=O`, 290 to 292 °C.
Regarding `COCCCNC(=O)CC#N`, the melting point was in the range of 63 to 65 °C.
`O=C1C(Br)CCN1c1ccc(Cl)cc1` (stereo unspecified) yielded a melting point of 83 to 85 °C.
In turn, `O=C(O)C1CCCN1C(=O)C1CCCC1` (stereo unspecified) displayed a melting point of 125 to 127 °C.
Take `O=C(O)CNC1=NS(=O)(=O)c2ccccc21`: the melting point fell in the range of 160 to 162 °C.
For `Nc1nc(Cl)ccc1C(=O)O`, the melting point was 216 to 218 °C.
The compound `O=S(=O)(Cl)c1cnc(Cl)nc1Cl` returned a melting point of 96 to 98 °C.
The compound `O=C(O)c1cc(S(=O)(=O)F)cs1` came in with a melting point of 191 to 193 °C.
The result for `N#Cc1ccccc1CN1C(=O)CCC1=O` reads 122 to 124 °C; that for `Clc1ccc(C2CC2)nn1`, 103 to 105 °C.
As for `COc1cc(Cl)c(C(=O)CBr)cc1OC`, the figure is 93 to 95 °C; as for `Cc1ccc(N)cc1S(N)(=O)=O`, 151 to 153 °C; as for `O=C(O)c1cnc(-c2ccsc2)s1`, 208 to 210 °C.
Consider `COc1ccc(C(=O)C(C)Br)c(OC)c1` (stereo unspecified), for which the melting point lay in the range of 66 to 68 °C.
The result for `C1C2CC3CC1CC(C2)C31CO1` (stereo unspecified) reads 180 to 182 °C; that for `Cc1c(C(=O)O)nnn1C1CCN(C(=O)OC(C)(C)C)CC1`, 179 to 181 °C.
`O=C(O)c1cccc(S(=O)(=O)NC2CC2)c1` showed a melting point of 188 to 192 °C.
`Cn1cc(S(N)(=O)=O)c(N)n1` had a melting point of 162 to 164 °C.
Take `Cc1cc(C=O)c(C)n1-c1ccnn1C(C)C`: the melting point fell in the range of 77 to 79 °C.
As for `O=S(=O)(NC1=NCCN1)c1cccs1`, the figure is 173 to 175 °C; as for `O=C(O)c1cc(-c2ccccc2F)on1`, 182 to 184 °C; as for `OCCNCc1cccc(OCc2ccccc2Cl)c1`, 49 to 50 °C.
The result for `O=Cc1ccc([N+](=O)[O-])c(O)c1` reads 132 to 134 °C; that for `CC(C)CN1CCCCC1C(=O)O` (stereo unspecified), 198 to 200 °C; that for `O=c1n(CCCl)nc2ccccn12`, 139 to 141 °C.
With `O=C(O)c1cc(I)cc([N+](=O)[O-])c1`, the melting point was 167 to 169 °C.
For the compound `Nc1ccc(S(=O)(=O)Nc2cccnc2)cc1`, the melting point lay within 256 to 258 °C.
As for `O=C(O)C1CCCN1Cc1ccc(F)cc1` (stereo unspecified), the figure is 242 to 244 °C.
For `Clc1ccc(SC2CCNCC2)cc1`, the melting point is 41 to 43 °C.
The result for `Clc1cnc(N2CCNCC2)c(Cl)c1` reads 59 to 61 °C; that for `O=C(O)Cn1cc(C2CC2)nn1`, 183 to 185 °C.
The result for `Cc1c(Cl)ccc2ccc(N)nc12` reads 134 to 136 °C; that for `Cc1nc(Cl)c2c(CC(C)C)csc2n1`, 60 to 62 °C; that for `O=C(O)C(O)C1CCOCC1` (stereo unspecified), 79 to 81 °C.
Compound `Cc1cccc(OCCCCC(=O)O)c1` registered a melting point of 55 to 57 °C.
As for `O=C(O)c1cc(Cl)ccc1Sc1ccc(Cl)cc1`, the figure is 158 to 160 °C; as for `Cc1ccc(N)cc1-n1cnnn1`, 113 to 115 °C; as for `O=C(CCl)N(Cc1ccc(F)cc1)C1CCCCC1`, 73 to 75 °C.
Compound `Cc1c(Cl)cc(S(N)(=O)=O)cc1[N+](=O)[O-]` had a melting point of 181 to 183 °C.
The result for `CCOC=C1C(=O)N(c2ccccn2)C(=O)c2ccccc21` reads 231 to 233 °C; that for `O=C(O)c1ccc(C(F)(F)F)[nH]c1=O`, 161 to 163 °C; that for `CS(=O)(=O)Nc1ccc(S(=O)(=O)Cl)c(F)c1`, 149 to 151 °C.
As for `O=C(O)c1cnc2ccc(Br)cc2c1O`, the figure is 274 to 276 °C; as for `COC(=O)c1cc(S(N)(=O)=O)c(F)cc1Br`, 164 to 166 °C.
For the compound `CNC(=O)c1cccc(CCC(=O)O)c1`, the melting point fell in the range of 119 to 121 °C.
As for `Cc1ccc(S(=O)(=O)NC2CCCCC2)cc1C(=O)O`, the figure is 217 to 219 °C; as for `CC1CN(C(=O)CC#N)CC(C)O1` (stereo unspecified), 125 to 127 °C; as for `O=Cc1cnc(Cl)nc1`, 118 to 120 °C.
In turn, `Fc1ccc(-c2csc3nc(Cc4ccc(Cl)cc4)nc(Cl)c23)cc1` had a melting point of 148 to 150 °C.
On to `Nc1c(-c2ccccc2)ncn1C1CC1`, for which the melting point lay in the range of 148 to 150 °C.
As for `CC(Cl)C(=O)c1ccc2c(c1)NC(=O)CO2` (stereo unspecified), the figure is 186 to 188 °C; as for `N#Cc1cccc(C(=O)N2CCCCC2)c1`, 61 to 63 °C.
The result for `NC(=O)CCn1ccc(N)n1` reads 142 to 144 °C.
The result for `N#CCN1CCC(=O)CC1` reads 91 to 93 °C; that for `O=C(Cn1ccnc1)c1ccc(F)cc1`, 150 to 152 °C.
Regarding `O=[N+]([O-])c1ccc(OCC(F)(F)F)cc1`, the melting point fell in the range of 73 to 75 °C.
The result for `Nc1nonc1C(=O)N1CCOCC1` reads 136 to 138 °C; that for `O=C(O)C=Cc1cncc(O)c1`, 243 to 245 °C; that for `CS(=O)(=O)NCc1cccc(Br)c1`, 66 to 68 °C.
The result for `Nc1ccc2[nH]c(=O)[nH]c2c1` reads 167 to 169 °C.
The result for `CNC(=O)c1cc2ccccc2[nH]1` reads 221 to 223 °C; that for `Cc1ccc(-c2nn(CCC#N)cc2C(=O)O)cc1C`, 174 to 176 °C.
With `Cc1csc(Sc2ccc(N)c(C)c2)n1`, the melting point fell in the range of 61 to 63 °C.
Regarding `COCCn1nc(C(=O)O)ccc1=O`, the melting point lay in the range of 156 to 158 °C.
The result for `Cc1cc(C#N)ccc1S(=O)(=O)Cl` reads 64 to 66 °C; that for `COc1ccc(Cl)cc1CO`, 56 to 61 °C.
Consider `CC(C)CN1C(=O)c2ccccc2N2C(=O)CCC12C(=O)O` (stereo unspecified), for which the melting point was in the range of 105 to 107 °C.
The result for `CNS(=O)(=O)c1ccc(C(C)N)cc1` (stereo unspecified) reads 104 to 106 °C; that for `Nc1ccc(-n2cccn2)nc1`, 97 to 99 °C; that for `O=Cc1cn(Cc2ccccc2)nc1-c1cc2ccccc2o1`, 146 to 148 °C.
Compound `O=C(O)c1ccc(Oc2cc(Cl)ccc2Cl)cc1` yielded a melting point of 169 to 171 °C.
The compound `Nc1cc(F)c(F)cc1N` registered a melting point of 126 to 130 °C.
Take `Cc1cc(N)c(C)cn1`: the melting point was in the range of 145 to 147 °C.
`CC(O)c1ncc(Cl)n1C` (stereo unspecified) displayed a melting point of 113 to 115 °C.
The result for `O=CN1CCN(C(=NS(=O)(=O)c2ccccc2)C(F)(F)F)CC1` reads 114 to 116 °C; that for `Nc1nc2c(F)c(F)ccc2s1`, 49 to 51 °C.
The result for `N#Cc1cnc2ccccc2c1N` reads 274 to 276 °C; that for `N#Cc1ccc(CBr)c(F)c1`, 75 to 77 °C.
As for `CCOC(=O)c1c(N)cc(OC)cc1OC`, the figure is 61 to 63 °C.
For the compound `Nc1ccc(F)c(NS(=O)(=O)c2cccs2)c1`, the melting point lay in the range of 179 to 181 °C.
The result for `Cc1cc2c(cc1C)OC(C(=O)O)C2` (stereo unspecified) reads 149 to 151 °C; that for `Cc1c(NS(=O)(=O)c2cc(C(=O)O)cc(Cl)c2Cl)c(=O)n(-c2ccccc2)n1C`, 155 to 157 °C.
As for `Cc1cccc(C)c1OCCO`, the figure is 70 to 72 °C; as for `Cc1nn(C)c(C)c1CC(C)C(=O)O` (stereo unspecified), 125 to 127 °C.

The values above are taken from a melting point compilation (Tetko et al.).
